Measured values: US20120029187A1, “HALOALKYLSULFONANILIDE DERIVATIVE” (Nissan Chemical Industries, Ltd., priority 2009, published 2012)

How the values were obtained:
Format in all cases: in vivo
[1] = tested on: Italian ryegrass; experiment: Test Example 4: herbicidal effect in foliage treatment; settings: dose 6.3 g/a, three weeks after application
How it was run: (§1)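 Visual herbicidal scores on a graded scale were recorded three weeks after foliar application. Compounds went on as diluted emulsifiable concentrates at predetermined g/a to plants grown 14 days in a 25 to 30° C greenhouse.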

[2] = tested on: beadstraw; experiment: as above; settings: dose 6.3 g/a, three weeks after application
How it was run: as §1

[3] = tested on: wild oat; experiment: as above; settings: dose 6.3 g/a, three weeks after application
How it was run: as §1

[4] = tested on: water foxtail; experiment: as above; settings: dose 6.3 g/a, three weeks after application
How it was run: as §1

[5] = tested on: common lambsquater; experiment: as above; settings: dose 6.3 g/a, three weeks after application
How it was run: as §1

[6] = tested on: barnyardgrass; experiment: as above; settings: dose 6.3 g/a, three weeks after application
How it was run: as §1

[7] = tested on: common ragweed; experiment: as above; settings: dose 6.3 g/a, three weeks after application
How it was run: as §1

[8] = tested on: redroot pigweed; experiment: as above; settings: dose 6.3 g/a, three weeks after application
How it was run: as §1

[9] = tested on: large crabgrass; experiment: as above; settings: dose 6.3 g/a, three weeks after application
How it was run: as §1

[10] = tested on: giant foxtail; experiment: as above; settings: dose 6.3 g/a, three weeks after application
How it was run: as §1

[11] = tested on: common chickweed; experiment: as above; settings: dose 6.3 g/a, three weeks after application
How it was run: as §1

[12] = tested on: barnyardgrass; experiment: Test Example 1: herbicidal effects in preemergence treatment under submerged conditions; settings: dose 2.52 g/a
How it was run: (§2)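 Alluvial soil was flooded to 4 cm, sown with barnyardgrass, bulrush and ducksalad, and planted with 2.5-leaf rice seedlings. On the seeding day, water-diluted emulsifiable concentrates were applied to the water surface at set doses (g/a). After three weeks in a 25 to 30° C. greenhouse, mortality was scored 0–5.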

[13] = tested on: ducksalad; experiment: as above; settings: dose 2.52 g/a
How it was run: as §2

[14] = tested on: bulrush; experiment: as above; settings: dose 2.52 g/a
How it was run: as §2

[15] = tested on: Italian ryegrass; experiment: Test Example 3: herbicidal effects in soil treatment; settings: dose 6.3 g/a
How it was run: (§3)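 Seeds were sown in sterilized diluvial soil and covered with about 1.5 cm of soil. Compounds, formulated as emulsifiable concentrates and diluted with water, were sprayed evenly over the soil surface at set doses in g/a. Herbicidal effect was scored on a rating scale three weeks later.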

[16] = tested on: wild oat; experiment: as above; settings: dose 6.3 g/a
How it was run: as §3

[17] = tested on: water foxtail; experiment: as above; settings: dose 6.3 g/a
How it was run: as §3

[18] = tested on: common lambsquater; experiment: as above; settings: dose 6.3 g/a
How it was run: as §3

[19] = tested on: barnyardgrass; experiment: as above; settings: dose 6.3 g/a
How it was run: as §3

[20] = tested on: common ragweed; experiment: as above; settings: dose 6.3 g/a
How it was run: as §3

[21] = tested on: large crabgrass; experiment: as above; settings: dose 6.3 g/a
How it was run: as §3

[22] = tested on: giant foxtail; experiment: as above; settings: dose 6.3 g/a
How it was run: as §3

[23] = tested on: common chickweed; experiment: as above; settings: dose 6.3 g/a
How it was run: as §3

[24] = tested on: barnyardgrass; experiment: Test Example 2: herbicidal effects during the vegetation period under submerged conditions; settings: treatment during the vegetation period under submerged conditions; dose 2.52 g/a
How it was run: (§4)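 Barnyardgrass, bulrush and ducksalad were co-sown in alluvial soil flooded to 4 cm and grown in a greenhouse at 25 to 30° C. At the 1- or 2-leaf stage, water-diluted emulsifiable concentrates went onto the water surface at set doses (g/a). Herbicidal effect was scored three weeks later on a graded scale.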

[25] = tested on: ducksalad; experiment: as above; settings: treatment during the vegetation period under submerged conditions; dose 2.52 g/a
How it was run: as §4

[26] = tested on: bulrush; experiment: as above; settings: treatment during the vegetation period under submerged conditions; dose 2.52 g/a
How it was run: as §4

[27] = tested on: transplanted rice; experiment: Test Example 1: preemergence treatment under submerged conditions, effect on crop; settings: dose 2.52 g/a
How it was run: as §2

[28] = tested on: redroot pigweed; experiment: Test Example 3: herbicidal effects in soil treatment; settings: dose 6.3 g/a
How it was run: as §3

Compound | H: Italian ryegrass, herbicidal effect [1] | O: beadstraw, herbicidal effect [2] | F: wild oat, herbicidal effect [3] | G: water foxtail, herbicidal effect [4] | L: common lambsquater, herbicidal effect [5] | A: barnyardgrass, herbicidal effect [6] | J: common ragweed, herbicidal effect [7] | K: redroot pigweed, herbicidal effect [8] | D: large crabgrass, herbicidal effect [9] | E: giant foxtail, herbicidal effect [10] | N: common chickweed, herbicidal effect [11] | A: barnyardgrass, herbicidal effect (evaluation scale 0-5) [12] | C: ducksalad, herbicidal effect (evaluation scale 0-5) [13] | B: bulrush, herbicidal effect (evaluation scale 0-5) [14] | H: Italian ryegrass, herbicidal effect (evaluation scale 0-5) [15] | F: wild oat, herbicidal effect (evaluation scale 0-5) [16] | G: water foxtail, herbicidal effect (evaluation scale 0-5) [17] | L: common lambsquater, herbicidal effect (evaluation scale 0-5) [18] | A: barnyardgrass, herbicidal effect (evaluation scale 0-5) [19] | J: common ragweed, herbicidal effect (evaluation scale 0-5) [20] | other results
CC1(C)CC(=O)N(Cc2ccccc2N(C(=O)c2ccccc2)S(=O)(=O)C(F)(F)F)CO1 [II-21] | 4 (mortality of at least 70% and less than 90%) | 4 (mortality of at least 70% and less than 90%) | 0 (mortality of less than 5% (almost ineffective)) | 5 (mortality of 90% or above (nearly complete death)) | 4 (mortality of at least 70% and less than 90%) | 5 (mortality of 90% or above (nearly complete death)) | 5 (mortality of 90% or above (nearly complete death)) | 2 (mortality of at least 20% and less than 40%) | 4 (mortality of at least 70% and less than 90%) | 4 (mortality of at least 70% and less than 90%) | 4 (mortality of at least 70% and less than 90%) | 5 (mortality of 90% or above (nearly complete death)) | 5 (mortality of 90% or above (nearly complete death)) | 5 (mortality of 90% or above (nearly complete death)) | 5 (mortality of 90% or above (nearly complete death)) | 0 (mortality of less than 5% (almost ineffective)) | 5 (mortality of 90% or above (nearly complete death)) | 0 (mortality of less than 5% (almost ineffective)) | 5 (mortality of 90% or above (nearly complete death)) | 5 (mortality of 90% or above (nearly complete death)) | D: large crabgrass, herbicidal effect (evaluation scale 0-5) [21]: 5 (mortality of 90% or above (nearly complete death)); E: giant foxtail, herbicidal effect (evaluation scale 0-5) [22]: 3 (mortality of at least 40% and less than 70%); N: common chickweed, herbicidal effect (evaluation scale 0-5) [23]: 4 (mortality of at least 70% and less than 90%); A: barnyardgrass, herbicidal effect (evaluation scale 0-5) [24]: 5 (mortality of 90% or above (nearly complete death)); C: ducksalad, herbicidal effect (evaluation scale 0-5) [25]: 5 (mortality of 90% or above (nearly complete death)); B: bulrush, herbicidal effect (evaluation scale 0-5) [26]: 5 (mortality of 90% or above (nearly complete death)); a: transplanted rice, effect on crop (evaluation scale 0-5) [27]: 0 (mortality of less than 5% (almost ineffective))
CC1CC(=O)N(Cc2ccccc2N(C(=O)c2ccccc2)S(=O)(=O)C(F)(F)F)CO1 (stereo not drawn) [II-6] | 3 (mortality of at least 40% and less than 70%) | 2 (mortality of at least 20% and less than 40%) | 0 (mortality of less than 5% (almost ineffective)) | 5 (mortality of 90% or above (nearly complete death)) | 1 (mortality of at least 5% and less than 20%) | 5 (mortality of 90% or above (nearly complete death)) | 5 (mortality of 90% or above (nearly complete death)) | 0 (mortality of less than 5% (almost ineffective)) | 4 (mortality of at least 70% and less than 90%) | 4 (mortality of at least 70% and less than 90%) | 1 (mortality of at least 5% and less than 20%) | 5 (mortality of 90% or above (nearly complete death)) | 5 (mortality of 90% or above (nearly complete death)) | 5 (mortality of 90% or above (nearly complete death)) | 3 (mortality of at least 40% and less than 70%) | 0 (mortality of less than 5% (almost ineffective)) | 5 (mortality of 90% or above (nearly complete death)) | 3 (mortality of at least 40% and less than 70%) | 5 (mortality of 90% or above (nearly complete death)) | 4 (mortality of at least 70% and less than 90%) | K: redroot pigweed, herbicidal effect (evaluation scale 0-5) [28]: 0 (mortality of less than 5% (almost ineffective)); D: large crabgrass, herbicidal effect (evaluation scale 0-5) [21]: 4 (mortality of at least 70% and less than 90%); E: giant foxtail, herbicidal effect (evaluation scale 0-5) [22]: 4 (mortality of at least 70% and less than 90%); A: barnyardgrass, herbicidal effect (evaluation scale 0-5) [24]: 5 (mortality of 90% or above (nearly complete death)); C: ducksalad, herbicidal effect (evaluation scale 0-5) [25]: 4 (mortality of at least 70% and less than 90%); B: bulrush, herbicidal effect (evaluation scale 0-5) [26]: 5 (mortality of 90% or above (nearly complete death)); a: transplanted rice, effect on crop (evaluation scale 0-5) [27]: 0 (mortality of less than 5% (almost ineffective))
